# Assay results as given in patent US20190282558A1, “Methods of Treating Zika Virus Infection” (Emergent Virology LLC, priority 2016, published 2019).
# Like-named read-outs stand apart in the source and are kept apart here.
# How the values were obtained:
# [1] = system: Zika virus, PR ABC strain (ZIKV, PR2015); experiment: Yield reduction assay followed by plaque assay in Vero cells, ZIKV PR2015; assay type: cell-based; conditions: 120 h, read-out: ZIKV, PR2015 IC50
# Procedure: (§1) The iminosugar compounds set forth in Table 4, below, were evaluated for antiviral activity against Zika virus, FSS 13025 strain (ZIKV, Cambodia 2010) and PR ABC strain (ZIKV, PR2015) in an yield reduction assay followed by a plaque assay.
# In the yield reduction assay, Vero cells were seeded in 24-well plates and incubated overnight. The next day, serial dilutions of a given compound were prepared at 200 μM, 100 μM, 20 μM, 4 μM, 0.8 μM, 0.16 μM, 0.03 μM, and 0.01 μM. Growth medium was removed from the cells and the serial dilutions of the given compound were added in duplicate for one hour. Zika virus, PR ABC strain (ZIKV, PR2015) was added at a multiplicity of infection (MOI) of 0.01 for one hour. Growth medium was added to 1 mL and the cells were incubated for 5 days. Thereafter, cell supernatants were harvested, cleared of cell debris by centrifugation, and stored at −80° C. until further analysis for viral content in a plaque assay.
# Plaque assays were performed by seeding Vero cells in 24-well plates and allowing the cells to adhere overnight. The next day each of the harvested supernatants from the yield-reduction assay were serially diluted 10-fold, growth medium was removed from the cells, and the adhered cells were infected with the dilutions of the supernatants for 1 h. The cells were incubated with 0.8% carboxymethyl cellulose (CMC) for 3 days. At the end of the incubation, CMC overlay was removed, and the cells were permeabilized with an 80%/20% (V/V) mixture of ethanol and methanol for 10 min at −20° C. Plaques were visualized by performing an immunostaining assay with monoclonal 4G2 (ATCC) which was detected by HRP-conjugated goat anti-mouse antibody and visualized using HRP-conjugated goat anti-mouse polyclonal antibodies. Relative inhibition was calculated using IDBS XLFIT analysis program.
# (§2) The duplicate titers for virus-only (vehicle control) were averaged and used as 0% inhibition. Efficacy data for the compounds were reported as the mean of the duplicates, including the standard deviation (SD) and coefficient of variation (% CV). FIGS. 2A, 2B, 3A, 3B, 4A, 4B, 5A, 5B, 6A, 6B, 7A, 7B, 8A, 8B, 9A, 9B, 10A, 10B, 11A, 11B, 12A, 12B, 13A, 13B, 14A, 14B, and 15 show the in vitro inhibitory effect of the iminosugar compounds against Zika virus, FSS 13025 strain, as set forth in Table 3 below.
# [2] = In vitro cell cytotoxicity (CellTiter-Glo) in Vero cells; assay type: cell-based; conditions: African green monkey, 3-5 days, max concentration 500 or 1000 μM, * = average of two values
# [3] = system: Zika virus, FSS 13025 strain (ZIKV, Cambodia 2010); experiment: Yield reduction assay followed by plaque assay in Vero cells, ZIKV Cambodia 2010; assay type: cell-based; conditions: for IC50: Zika virus, 96 h, read-out: ZIKV, Cambodian 2010 IC50; for IC50 (summary in words): summary of Table 3
# Procedure: as §1
# In the yield reduction assay, Vero cells were seeded in 24-well plates and incubated overnight. The next day, serial dilutions of a given compound were prepared at 300 μM, 100 μM, 30 μM, 10 μM, and 3.0 μM. Growth medium was removed from the cells and the serial dilutions of the given compound were added in duplicate for one hour. Zika virus, FSS 13025 strain (ZIKV, Cambodia 2010) was added at a multiplicity of infection (MOI) of 0.01 for one hour. Growth medium was added to 1 mL and the cells were incubated for 4 days. Thereafter, cell supernatants were harvested, cleared of cell debris by centrifugation, and stored at −80° C. until further analysis for viral content in a plaque assay.
# Plaque assays were performed by seeding Vero cells in 24-well plates and allowing the cells to adhere overnight. The next day each of the harvested supernatants from the yield-reduction assay were serially diluted 10-fold, growth medium was removed from the cells, and the adhered cells were infected with the dilutions of the supernatants for 1 h. Methylcellulose was added and the cells were incubated for 3 days. Plaques were visualized by staining the cell monolayer with crystal violet. Relative inhibition was calculated using IDBS XLFIT analysis program.
# as §2
# [4] = system: Zika virus (isolate FSS13025 of the Asian genotype); experiment: Efficacy against lethal Zika virus infection in AG129 mice; assay type: in vivo; conditions: 1E2 FFU Zika virus, 750 mg/kg once daily for three days by oral gavage, starting 16 hours after exposure, vs vehicle (FIG. 1)
# Procedure: AG129 mice, aged 5-7 weeks, of both sexes were divided into groups of eight mice each. Mice were infected with 1E2 FFU of Zika virus (isolate FSS13025 of the Asian genotype). The mice were treated 16 hours after exposure. One group was administered 750 mg/kg of UV-4 once daily for three days. UV-4 was formulated in water and all doses were administered via oral gavage in a volume of 100 μL. A control group was administered vehicle (water) only. Predefined study endpoints were mortality, euthanasia due to severe morbidity, or termination after 10 days total. Weights were measured and health scores were determined daily.
# [5] = Vero cells, MOI 0.01, 5 days, plaque assay with immunostaining, * = average of multiple data points
# [6] = Vero cells, MOI 0.01, 4 days, plaque assay of supernatants, * = average of multiple data points
"IC50 [1, 5] [µM]","IC50 [3, 6] [µM]",IC50 (summary in words) [3],SMILES,CC50 [2] [µM],IC50 ([1]; Vero) [µM],IC50 ([3]; Vero) [µM],survival [4]
69.6,45.7,–,"OC[C@@H]1[C@@H](O)[C@H](O)[C@@H](O)CN1CCCCCCCCC1CCCO1 (stereo partly drawn) [Compound 1, (2R,3R,4R,5S)-2-(hydroxymethyl)-1-(8-(tetrahydrofuran-2-yl)octyl)piperidine-3,4,5-triol]",> 500,–,–,–
94.6,38.7,low micromolar activity,"[N-]=[N+]=Nc1ccc([N+](=O)[O-])c(NCCCCCCN2C[C@H](O)[C@@H](O)[C@H](O)[C@H]2CO)c1 [Compound 12, (2R,3R,4R,5S)-1-(6-((5-azido-2-nitrophenyl)amino)hexyl)-2-(hydroxymethyl)piperidine-3,4,5-triol]",140,–,–,–
> 100,> 100,–,"CN(C)Cc1ccc(NCCCCCCN2C[C@H](O)[C@@H](O)[C@H](O)[C@H]2CO)c([N+](=O)[O-])c1 [Compound 11, (2R,3R,4R,5S)-1-(6-((4-((dimethylamino)methyl)-2-nitrophenyl)amino)hexyl)-2-(hydroxymethyl)piperidine-3,4,5-triol]",> 1000,–,–,–
12.6,10.1,low micromolar activity,"COC(C)(C)CCCCCCCCN1C[C@H](O)[C@@H](O)[C@H](O)[C@H]1CO [Compound 2, (2R,3R,4R,5S)-2-(hydroxymethyl)-1-(9-methoxy-9-methyldecyl)piperidine-3,4,5-triol]",> 500,–,–,–
–,–,–,"COCCCCCCCCCN1C[C@H](O)[C@@H](O)[C@H](O)[C@H]1CO [UV-4, (2R,3R,4R,5S)-2-(hydroxymethyl)-1-(9-methoxynonyl)piperidine-3,4,5-triol]",> 1000,> 100,> 100,statistically significant survival benefit
> 100,> 100,–,"O=[N+]([O-])c1cc(N2CCOCC2)ccc1NCCCCCCN1C[C@H](O)[C@@H](O)[C@H](O)[C@H]1CO [Compound 8, (2R,3R,4R,5S)-2-(hydroxymethyl)-1-(6-((4-morpholino-2-nitrophenyl)amino)hexyl)piperidine-3,4,5-triol]",> 1000,–,–,–
150,12.1,low micromolar activity,"CN1CCN(Cc2ccc(NCCCCCCN3C[C@H](O)[C@@H](O)[C@H](O)[C@H]3CO)c([N+](=O)[O-])c2)CC1 [Compound 15, (2R,3R,4R,5S)-2-(hydroxymethyl)-1-(6-((4-((4-methylpiperazin-1-yl)methyl)-2-nitrophenyl)amino)hexyl)piperidine-3,4,5-triol]",> 1000,–,–,–

SMILES,"IC50 [1, 5] [µM]","IC50 [3, 6] [µM]",IC50 (summary in words) [3],CC50 [2] [µM],IC50 ([1]; Vero) [µM],IC50 ([3]; Vero) [µM],survival [4]
"[N-]=[N+]=Nc1ccc(NCCCCCCN2C[C@H](O)[C@@H](O)[C@H](O)[C@H]2CO)c([N+](=O)[O-])c1 [UV-5, (2R,3R,4R,5S)-1-(6-((4-azido-2-nitrophenyl)amino)hexyl)-2-(hydroxymethyl)piperidine-3,4,5-triol]",–,–,low micromolar activity,77.3,5.24,4.42,–
